The source of these data is paper PMC7179198, “Chiral Pyridine-3,5-bis- (L-phenylalaninyl-L-leucinyl) Schiff Base Peptides as Potential Anticancer Agents: Design, Synthesis, and Molecular Docking Studies Targeting Lactate Dehydrogenase-A” (Molecules, 2020).

One experiment relates to MCF-7 xenografts. As to the kind of experiment: In vivo human breast cancer xenograft. Further details: species or system nude mice. As to conditions: MCF-7 xenograft, eight days of treatment. From the text: In this section, we developed a breast cancer animal xenograft model for the evaluation of thein vivo anticancer potential of our newly prepared compounds. […] After wards, the noticeable effects were more or less constant up to 14 days of treatment. […] Our results are in good agreement with those previously published on the in vivo anticancer potential of Schiff bases owing to apoptosis induction.
The breast cancer xenograft model protocol was approved by the Institutional Animal Use and Care Committee of the University of Alabama at Birmingham (50-01-05-08B). Female athymic pathogen-free nude mice (nu/nu, 4–6 weeks) were used. Firstly, MCF-7 xenografts were initiated by implanting pellets slowly releasing estrogen for two months (1.7mg 17β-estradiol/pellet) subcutaneously in the female nude mice. After 24 h, confluent MCF-7 cells were harvested, washed two times with serum-free medium, re-suspended, and injected subcutaneously (s.c.) (5 × 10^6 cells, total volume 0.2 mL) into the left inguinal area of the mice. Caliper measurement was used to measure tumor growth in two perpendicular diameters of the implant after 48 h, and its volume was determined. Mice grafted with MCF-7 were divided into different groups (7–10 mice/group). Untreated mice received the solvent only. Treated groups received different prepared derivatives as previously described.
Background: A xenograft is tissue or cells of one species grown in another, often human tumour cells in immunodeficient mice.

Experiment [1] addresses T1, recombinant human LDHA protein (Homo sapiens, UniProt P00338).
T1 construct: purchased Abcam ab93699
As to the kind of experiment: LDHA inhibition assay (colorimetric NADH kit). Type of experiment: biochemical. The protocol: The newly synthesized compounds 4–6 were evaluated for their ability to inhibit LDHA in comparison with galloflavin as a known isoform nonselective LDHA inhibitor [44, 45]. The choice of galloflavin as a reference was based on the fact that it is potent anticancer agent and commercially available.
Lactate dehydrogenase assay kit (Abcam, ab102526) and recombinant human LDHA protein (Abcam, ab93699) were used to assess the inhibitory effect of the tested compounds. First, we generated an NADH standard curve for colorimetric detection by measuring the OD (450 nm) at different molar amounts of NADH. The linear regression equation of the curve was derivatized in Graphpad Prism. Tested compounds were dissolved in DMSO and their inhibitory activity was assessed at 140 and 300 μM strength. Galloflavin (Sigma, SML0776) at the same molar concentration was used as a known LDH inhibitor. The master reaction mix composed of LDH assay buffer and 10 ng human LDHA […] per reaction was prepared. Tested compounds were added and the final reaction volume was adjusted to 50 μL. Absorbance at 450 nm was taken after 2–3 min (T-initial) and continued every minute for 118 min (T-final). The change in measurement over time (delta A450) was calculated as T-final minus T-initial. The amount of NADH generated by the assay between T-initial and T-final was deduced by comparing the A450 of each sample to the standard NADH standard curve. LDHA activity was calculated in milliunits per mL as the amount of NADH generated by the assay / (reaction time in minutes (118) x reaction volume in mL ([…]).

The subject of experiment [2] is p53 ubiquitination. As to the kind of experiment: In vitro p53 ubiquitination inhibition. Type of experiment: biochemical. From the text:
(§1) Several cancer prevention drugs depend mainly on the ubiquitination activities against p53 as a suppressor protein. When E3 ubiquitin protein ligase HDM2 binds to p53, the resulting mechanism is the inhibition of its ability as a transcription activator. Accordingly, the regulative mechanism is acting negatively. Therefore, blocking the p53 binding site on HDM2 provides for a better possible antitumorigenic molecule. Currently, murine double minute 2 (MDM2) is considered as the regulator of choice when it comes to investigatingp53 inhibition.
(§2) Different prepared derivatives 4–6 were evaluated for their inhibitory potential against p53 ubiquitination according to the previously reported procedure.

The test system of experiment [3] is p53 ubiquitination. As to the kind of experiment: In vivo p53 ubiquitination inhibition.
Excerpt: as §1, §2

The IC50 is the midpoint of a concentration-inhibition curve. On to `CC(=NNC(=O)C(CC(C)C)NC(=O)C(Cc1ccccc1)NC(=O)c1cncc(C(=O)NC(Cc2ccccc2)C(=O)NC(CC(C)C)C(=O)NN=C(C)c2ccc([N+](=O)[O-])cc2)c1)c1ccc([N+](=O)[O-])cc1` (centres unmarked) [5e, N^3,N^5-Bis{1-[(4-methyl-1-(2-(1-(4-nitrophenyl)ethylidene)hydrazinyl)-1-oxopentan-2-yl)-amino]-1-oxo-3-phenylpropan-2-yl}pyridine-3,5-dicarboxamide], for which the “decrease in tumor growth” value in the experiment on MCF-7 xenografts is reported as 74.2%. Besides, the IC50 in experiment [1] (recombinant human LDHA) turned out to be 141.6 ± 0.98 µM. In experiment [1] (vs galloflavin), the “fold increase in LDHA inhibitory activity compared with galloflavin” value was approximately 1.14 fold.
In the case of `CC(=NNC(=O)C(CC(C)C)NC(=O)C(Cc1ccccc1)NC(=O)c1cncc(C(=O)NC(Cc2ccccc2)C(=O)NC(CC(C)C)C(=O)NN=C(C)c2ccccn2)c1)c1ccccn1` (centres unmarked) [4a, N^3,N^5-Bis{1-[(4-methyl-1-oxo-1-(2-(1-(pyridin-2-yl)ethylidene)hydrazinyl)pentan-2-yl)amino]-1-oxo-3-phenylpropan-2-yl}pyridine-3,5-dicarboxamide], in the experiment on MCF-7 xenografts, the “decrease in tumor growth” value stood at 81.3%. Moreover, the IC50 is 21.34 ± 0.13 µM with p53 ubiquitination [2] (read-out: in vitro IC50, suppression of p53 ubiquitination) and 0.12 ± 0.0011 µM with p53 ubiquitination [3] (read-out: in vivo IC50, suppression of p53 ubiquitination). Also, the “fold higher inhibitory effect than positive control (diphenyl imidazole), in vitro p53 ubiquitination” value with p53 ubiquitination [2] (vs diphenyl imidazole) is on record as “about 12.2 fold”. Moreover, the “fold higher inhibitory effect than positive control (diphenyl imidazole), in vivo p53 ubiquitination” value with p53 ubiquitination [3] (in vivo, vs diphenyl imidazole) is recorded as approximately 15.7 fold.
